From PMC4521866 (PLoS ONE, 2015)

Assay: Solubility and structural stability of peptides
Assay type: physicochemical
Conditions: effect of adding HR2 hydrophilic residues to the LK21 N-terminus; qualitative

| Compound | solubility and structural stability |
| --- | --- |
| CC[C@H](C)[C@H](NC(=O)[C@H](Cc1ccc(O)cc1)NC(=O)[C@H](Cc1c[nH]c2ccccc12)NC(=O)[C@H](CC(C)C)NC(=O)[C@H](Cc1c[nH]c2ccccc12)NC(=O)[C@H](CC(N)=O)NC(=O)[C@@H](NC(=O)[C@@H](NC(=O)[C@H](CC(N)=O)NC(=O)[C@H](Cc1ccccc1)NC(=O)[C@H](Cc1c[nH]c2ccccc12)NC(=O)[C@H](CC(N)=O)NC(=O)[C@H](Cc1c[nH]c2ccccc12)NC(=O)[C@H](CC(C)C)NC(=O)[C@H](CO)NC(=O)[C@H](C)NC(=O)[C@H](Cc1c[nH]c2ccccc12)NC(=O)[C@H](CCCCN)NC(=O)[C@H](CC(=O)O)NC(=O)[C@H](CC(C)C)NC(=O)[C@H](CCC(=O)O)NC(=O)[C@H](CC(C)C)NC(=O)[C@H](CC(C)C)NC(=O)[C@H](CCC(=O)O)NC(=O)[C@H](CCC(N)=O)NC(=O)[C@H](CCC(=O)O)NC(=O)[C@H](CC(N)=O)NC(=O)[C@H](CCCCN)NC(=O)[C@H](CCC(=O)O)NC(C)=O)[C@@H](C)CC)[C@@H](C)O)C(=O)N[C@@H](CCCCN)C(N)=O [EK30] | greatly enhanced |
| CC[C@H](C)[C@H](NC(=O)[C@H](Cc1ccc(O)cc1)NC(=O)[C@H](Cc1c[nH]c2ccccc12)NC(=O)[C@H](CC(C)C)NC(=O)[C@H](Cc1c[nH]c2ccccc12)NC(=O)[C@H](CC(N)=O)NC(=O)[C@@H](NC(=O)[C@@H](NC(=O)[C@H](CC(N)=O)NC(=O)[C@H](Cc1ccccc1)NC(=O)[C@H](Cc1c[nH]c2ccccc12)NC(=O)[C@H](CC(N)=O)NC(=O)[C@H](Cc1c[nH]c2ccccc12)NC(=O)[C@H](CC(C)C)NC(=O)[C@H](CO)NC(=O)[C@H](C)NC(=O)[C@H](Cc1c[nH]c2ccccc12)NC(=O)[C@H](CCCCN)NC(=O)[C@H](CC(=O)O)NC(=O)[C@H](CC(C)C)NC(=O)[C@H](CCC(=O)O)NC(=O)[C@H](CC(C)C)NC(=O)[C@H](CC(C)C)NC(=O)[C@H](CCC(=O)O)NC(=O)[C@H](CCC(N)=O)NC(C)=O)[C@@H](C)CC)[C@@H](C)O)C(=O)N[C@@H](CCCCN)C(N)=O [QK26] | greatly enhanced |
| Ac-EESQNQQEKNEQELLELDKWASLWNWFNITNWLWYIK-NH2 [EK37] | greatly enhanced |
